Reference: ChEMBL document CHEMBL4373746, “Structural attributes influencing unbound tissue distribution” (Eur J Med Chem, 2020)

Columns and labels:
[1] = Unbound tissue partition coefficient, ratio of drug level in liver to plasma in Wistar Han rat at 1 to 2 mg/kg, iv infused for 10 to 20 hrs by LC-MS/MS analysis; settings: liver/plasma
[2] = Drug concentration in total brain in Wistar Han rat at 1 to 2 mg/kg, iv infused for 10 to 20 hrs by LC-MS/MS analysis; settings: in vivo
[3] = Unbound tissue partition coefficient, ratio of drug level in adipose to plasma in Wistar Han rat at 1 to 2 mg/kg, iv infused for 10 to 20 hrs by LC-MS/MS analysis; settings: adipose/plasma
[4] = Apparent permeability of the compound across dog RRCK cells by MDCK-LE assay
[5] = Fraction unbound in Wistar Han rat plasma at 2 uM incubated for 6 hrs by equilibrium dialysis method
[6] = Drug concentration in total white adipose tissue in Wistar Han rat at 1 to 2 mg/kg, iv infused for 10 to 20 hrs by LC-MS/MS analysis; settings: in vivo
[7] = Fraction unbound in Wistar Han rat brain at 2 uM incubated for 6 hrs by equilibrium dialysis method
[8] = Unbound tissue partition coefficient, ratio of drug level in skeletal muscle to plasma in Wistar Han rat at 1 to 2 mg/kg, iv infused for 10 to 20 hrs by LC-MS/MS analysis; settings: skeletal muscle/plasma
[9] = Unbound tissue partition coefficient, ratio of drug level in brain to plasma in Wistar Han rat at 1 to 2 mg/kg, iv infused for 10 to 20 hrs by LC-MS/MS analysis; settings: brain/plasma
[10] = Unbound tissue partition coefficient, ratio of drug level in heart to plasma in Wistar Han rat at 1 to 2 mg/kg, iv infused for 10 to 20 hrs by LC-MS/MS analysis; settings: heart/plasma
[11] = Total plasma concentration in Wistar Han rat at 1 to 2 mg/kg, iv infused for 10 to 20 hrs by LC-MS/MS analysis; settings: in vivo
[12] = Fraction unbound in Wistar Han rat liver at 2 uM incubated for 6 hrs by equilibrium dialysis method
[13] = Drug concentration in total heart in Wistar Han rat at 1 to 2 mg/kg, iv infused for 10 to 20 hrs by LC-MS/MS analysis; settings: in vivo
[14] = Drug concentration in total skeletal muscle in Wistar Han rat at 1 to 2 mg/kg, iv infused for 10 to 20 hrs by LC-MS/MS analysis; settings: in vivo
[15] = Fraction unbound in Wistar Han rat heart at 2 uM incubated for 6 hrs by equilibrium dialysis method
[16] = Fraction unbound in Wistar Han rat white adipose tissue at 2 uM incubated for 6 hrs by equilibrium dialysis method
[17] = Fraction unbound in Wistar Han rat skeletal muscle at 2 uM incubated for 6 hrs by equilibrium dialysis method
[18] = Drug concentration in total liver in Wistar Han rat at 1 to 2 mg/kg, iv infused for 10 to 20 hrs by LC-MS/MS analysis; settings: in vivo

SMILES | Kp uu [1] | Ct [2] | Kp uu [3] | Papp [4] | fraction unbound at 6 h, 2 µM [5] | Ct [6] | fraction unbound at 6 h, 2 µM [7] | Kp uu [8] | Kp uu [9] | Kp uu [10] | Cp [11] | fraction unbound at 6 h, 2 µM [12] | Ct [13] | Ct [14] | fraction unbound at 6 h, 2 µM [15] | fraction unbound at 6 h, 2 µM [16] | fraction unbound at 6 h, 2 µM [17] | Ct [18]
COc1cc(/C=C2\CCCN([C@@H](C)c3ccc(F)cc3)C2=O)ccc1-n1cnc(C)c1 | 7 | 150 ng/mL | 2.3 | 16 ×10⁻⁶ cm/s | 0.00785 | 1800 ng/mL | 0.00429 | 0.13 | 0.4 | 0.77 | 210 ng/mL | 0.00939 | 360 ng/mL | 180 ng/mL | 0.00363 | 0.00185 | 0.0012 | 1200 ng/mL
Oc1noc2cc(Cl)c(Cl)cc12 | 0.22 | 24 ng/mL | 9.7 | 29 ×10⁻⁶ cm/s | 0.00445 | 29 ng/mL | 0.103 | 1.2 | 1.1 | 10 | 500 ng/mL | 0.105 | 180 ng/mL | 17 ng/mL | 0.13 | 0.714 | 0.153 | 4.7 ng/mL
CC(C)(O)CS(=O)(=O)c1ccc2c(c1)nc(C(C)(C)C)n2CC1CCOCC1 | 5.4 | 6.2 ng/mL | 1.7 | 28 ×10⁻⁶ cm/s | 0.469 | 55 ng/mL | 0.538 | 0.48 | 0.13 | 1.1 | 55 ng/mL | 0.437 | 91 ng/mL | 60 ng/mL | 0.321 | 0.786 | 0.203 | 320 ng/mL
CO[C@@H]1C[C@H](C(=O)Nc2ccc(-n3cc(Cl)ccc3=O)cc2F)N(C(=O)Nc2ccc(Cl)cc2)C1 | 8.6 | 10 ng/mL | 7.9 | 21 ×10⁻⁶ cm/s | 0.0543 | 300 ng/mL | 0.0391 | 2.4 | 0.064 | 11 | 120 ng/mL | 0.0949 | 960 ng/mL | 180 ng/mL | 0.0772 | 0.177 | 0.0842 | 600 ng/mL
Cc1ccc(CC(C)(C)NC[C@@H](O)CO[C@H](C)c2ccccc2-c2ccc(C(=O)O)c(C)c2)cc1F | 7.1 | 0.38 ng/mL | 2.5 | 4.4 ×10⁻⁶ cm/s | 0.00353 | 8 ng/mL | 0.0111 | 0.85 | 0.0018 | 1.8 | 120 ng/mL | 0.0134 | 56 ng/mL | 17 ng/mL | 0.0129 | 0.126 | 0.021 | 220 ng/mL
Cc1nc2cc(-c3cc(F)cc(C#N)c3)ccc2s1 | 20 | 73 ng/mL | 2.6 | 34 ×10⁻⁶ cm/s | 0.00655 | 570 ng/mL | 0.00394 | 0.6 | 1.5 | 3.3 | 31 ng/mL | 0.00815 | 66 ng/mL | 25 ng/mL | 0.0101 | 0.000864 | 0.0047 | 480 ng/mL

Other lines, results leading:

Kp uu [1] | Ct [2] | Kp uu [3] | Papp [4] | fraction unbound at 6 h, 2 µM [5] | Ct [6] | fraction unbound at 6 h, 2 µM [7] | Kp uu [8] | Kp uu [9] | Kp uu [10] | Cp [11] | fraction unbound at 6 h, 2 µM [12] | Ct [13] | Ct [14] | fraction unbound at 6 h, 2 µM [15] | fraction unbound at 6 h, 2 µM [16] | fraction unbound at 6 h, 2 µM [17] | Ct [18] | SMILES
4.5 | 0.69 ng/mL | 0.26 | 9.8 ×10⁻⁶ cm/s | 0.19 | 5.4 ng/mL | 0.0945 | 0.29 | 0.0032 | 0.75 | 79 ng/mL | 0.191 | 77 ng/mL | 33 ng/mL | 0.15 | 0.672 | 0.132 | 350 ng/mL | COc1ccc2ncc(F)c([C@@H](O)CC[C@@H]3CCN(CCSc4cccs4)C[C@@H]3C(=O)O)c2c1
2.8 | 1.8 ng/mL | 1.1 | 24 ×10⁻⁶ cm/s | 0.186 | 39 ng/mL | 0.155 | 0.54 | 0.013 | 1.5 | 50 ng/mL | 0.111 | 120 ng/mL | 56 ng/mL | 0.121 | 0.256 | 0.0901 | 240 ng/mL | C[C@H](c1nc2cnc(N3CCC[C@@H](C(=O)N4CCCC4)C3)nc2[nH]1)n1cc(Cl)cn1
5 | 6.8 ng/mL | 0.21 | 0.51 ×10⁻⁶ cm/s | 0.692 | 5.4 ng/mL | 1 | 0.1 | 0.16 | 5.3 | 55 ng/mL | 0.287 | 210 ng/mL | 7.4 ng/mL | 1 | 0.736 | 0.595 | 630 ng/mL | Cn1ncc(-c2ccc(C(=O)N(c3ncccc3Cl)[C@@H]3CCCNC3)cc2)c1C(=O)O
0.037 | 0.38 ng/mL | 0.024 | 17 ×10⁻⁶ cm/s | 0.00353 | 0.77 ng/mL | 0.00874 | 1.1 | 0.0018 | 4.2 | 88 ng/mL | 0.00824 | 80 ng/mL | 20 ng/mL | 0.0159 | 0.165 | 0.017 | 1.5 ng/mL | O=C(O)[C@@H]1CCN(C(=O)n2cnc(-c3ccc(-c4cnc(N5CCOCC5)nc4)cc3)n2)[C@@H](c2ccccc2)C1
12 | 0.95 ng/mL | 0.024 | 0.1 ×10⁻⁶ cm/s | 0.0141 | 0.77 ng/mL | 0.00795 | 0.02 | 0.0042 | 0.57 | 45 ng/mL | 0.00684 | 45 ng/mL | 0.8 ng/mL | 0.00934 | 0.119 | 0.011 | 1000 ng/mL | CC(C)C[C@H](Nc1ccc(C(=O)NCCC(=O)O)cn1)c1ccc(-c2ccc(C(F)(F)F)cn2)cc1
5.4 | 200 ng/mL | 3.9 | 35 ×10⁻⁶ cm/s | 0.0667 | 880 ng/mL | 0.079 | 0.68 | 3.2 | 4.7 | 79 ng/mL | 0.12 | 230 ng/mL | 40 ng/mL | 0.1 | 0.0208 | 0.0833 | 230 ng/mL | O=C(NC(c1ccccc1)c1ccccc1)C1CC1
31 | 91 ng/mL | 4.8 | 25 ×10⁻⁶ cm/s | 0.0044 | 240 ng/mL | 0.0099 | 0.65 | 2.5 | 1.9 | 92 ng/mL | 0.0191 | 130 ng/mL | 37 ng/mL | 0.00576 | 0.00709 | 0.0067 | 630 ng/mL | Cc1ccc(NC(=O)N2CCN(Cc3sc4ccccc4c3C)CC2)nc1
